Data as given in US5070210A, “Novel ketenimines as intermediates for insecticides” (ICI Americas Inc., priority 1990, dated 1991).

Columns and labels:
Assay type in all cases: in vivo
[1] = tested on: Aster Leafhopper [Macrosteles fascifrens (Stal)]; test: Aster leafhopper insecticidal test; conditions: adults/nymphs, percent in solution; 48 hours
How it was run: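 LC50 values, given as percent of test compound in the dip solution, were derived from dosage-mortality curves over concentrations from 0.05% downward. Mortality was counted 48 hours after ten leafhopper adults/nymphs were enclosed on treated seedlings. The seedlings were oats, about 10 cm tall, briefly dipped in 50-50 acetone-water.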

[2] = tested on: Beet Armyworm (Spodoptera exigua); test: Beet armyworm insecticidal test; conditions: second-instar larvae, percent in solution; five days
How it was run: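 Five second-instar larvae per dish fed on dried sugar beet leaves previously dipped 2–3 s in acetone-water (1:1) test solutions up to 0.1%. Kept at high humidity, with deaths counted after five days; LC50 as % in solution via dosage-mortality curves.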

[3] = tested on: Tobacco Budworm [Heliothis virescens (Fabricius)] eggs; test: Tobacco budworm egg test; conditions: 2-day old eggs, percent in solution
How it was run: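 Paper-towel patches of 2-day-old eggs dipped in acetone solutions of compound (0.1% downward), held on larval rearing medium at 78° F. Mortality scored once all control eggs had hatched and larvae were feeding; LC50 from dosage-mortality curves, expressed as percent compound in solution.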

[4] = tested on: Cabbage Looper [Trichoplusia ni (Hubner)]; test: Cabbage looper insecticidal test; conditions: second-instar larvae, percent in solution; 3-5 days
How it was run: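 Squash cotyledons dipped 2-3 s in compound in 50-50 acetone-water, dried, then infested with 5 second-instar larvae and held at high humidity. Mortality scored after 3-5 days at concentrations from 0.1% downward. LC50 from dosage-mortality curves, expressed as percent compound in solution.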

[5] = tested on: Housefly [Musca domestica]; test: Housefly insecticidal test; conditions: μg per 25 female flies; mortality after 48 hours
How it was run: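 LC50 (μg compound per 25 female flies) derives from dosage-mortality curves of 48 h kill. Flies, females 1-2 days old, were held 25 per cage over a dish coated with dried acetone deposit, starting at 100 μg per cage and descending.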

[6] = tested on: Rice water weevil [Lissorhoptrus oryzophilus (Kuschel)]; test: Rice water weevil insecticidal test; conditions: topical, μg per weevil; 48 hours
Method: The compounds in Tables 1 and 2 above were tested for insecticidal activity using the following testing procedures. LC50 values, based on the results of these tests and calculated according to dosage-mortality curves, are expressed in Table 3.
Rice water weevil [Lissorhoptrus oryzophilus (Kuschel)]:
Test compounds were diluted in acetone. Droplets (1 μl) of test solutions were applied to the ventral abdomens of ten female adult weevils. The treated weevils were placed in containers with wet cotton balls and rice foliage. The containers were covered and kept at a temperature of about 25° C. Mortality was recorded after 48 hours. Test concentrations ranged from […] or 2.5 μg per weevil down to that at which 50% mortality occurred. The LC50 values are expressed below in Table 3 under the heading "RWW" in terms of μg of test compound per weevil.

[7] = tested on: Maize weevil [Sitophilus Zeamais (Motschulsky)]; test: Maize weevil insecticidal test; conditions: adult weevils, percent in solution; 48 hours
How it was run: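 LC50, in percent of compound in solution, was derived from dosage-mortality curves after 48 h at about 25 °C. Ten adult weevils per container fed on four corn seeds briefly immersed in acetone:water (50:50) solutions of up to 0.01% and dried.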

[8] = tested on: Tobacco Budworm [Heliothis virescens (Fabricius)] larvae; test: Tobacco budworm contact test; conditions: second-instar larvae, percent in solution, 5 days
How it was run: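 Cotton cotyledons dipped 2–3 s in compound in 50-50 acetone-water, dried, then infested with 5 second-instar larvae and held 5 days at high humidity. Mortality scored; LC50 from dosage-mortality curves, expressed as percent compound in solution, concentrations from 0.1% downward.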

FC(F)(F)c1cccc(N=C(OCc2cccc(Oc3ccccc3)c2)C(Cl)Cl)c1 [Compound 66]
LC50, LH [1]: 0.001%
LC50, BAW [2]: 0.0065%
LC50, TBW, E (TBW-E) [3]: 0.06%
LC50, CL [4]: < 0.0025%
LC50, HF [5]: 9.7 µg
LC50, RWW [6]: > 2.5 µg

CC(C)C(=Nc1ccc(C(F)(F)F)cc1)OCc1cccc(Oc2ccccc2)c1 [Compound 68]
LC50, LH [1]: 0.0001%
LC50, TBW, E (TBW-E) [3]: 0.009%
LC50, CL [4]: 0.006%
LC50, HF [5]: 37 µg
LC50, RWW [6]: 0.15 µg
LC50, MW [7]: > 0.01%

CCC(=Nc1ccc(F)c(Cl)c1)OCc1cccc(Oc2ccccc2)c1 [Compound 85]
LC50, LH [1]: 0.003%
LC50, TBW, E (TBW-E) [3]: > 0.1%
LC50, CL [4]: 0.004%
LC50, HF [5]: 7 µg
LC50, RWW [6]: > 2.5 µg
LC50, MW [7]: > 0.01%

CC(C)C(=Nc1ccc(F)c(Cl)c1)OCc1cccc(Oc2cccc(F)c2)c1 [Compound 125]
LC50, LH [1]: > 0.05%
LC50, TBW, E (TBW-E) [3]: 0.025%
LC50, CL [4]: 0.0007%
LC50, HF [5]: 12 µg
LC50, RWW [6]: > 2.5 µg
LC50, MW [7]: > 0.01%

CC(C)C(=Nc1ccc(F)c(Cl)c1)OCc1cccc(Oc2ccc(F)cc2F)c1 [Compound 191]
LC50, LH [1]: > 0.05%
LC50, TBW, E (TBW-E) [3]: 0.04%
LC50, CL [4]: 0.00023%
LC50, HF [5]: 29 µg
LC50, RWW [6]: > 2.5 µg
LC50, MW [7]: 0.004%

CC(C)C(=Nc1c(F)c(F)c(F)c(F)c1F)OCc1cccc(Oc2ccc(F)cc2)c1 [Compound 198]
LC50, LH [1]: 0.05%
LC50, TBW, E (TBW-E) [3]: > 0.1%
LC50, CL [4]: 0.0005%
LC50, HF [5]: 52 µg
LC50, RWW [6]: > 2.5 µg
LC50, MW [7]: 0.003%

CC(C)C(=Nc1ccc(Cl)c(Cl)c1)OCc1ccc(F)c(Oc2ccc(F)cc2)c1 [Compound 289]
LC50, LH [1]: 0.0003%
LC50, TBW, E (TBW-E) [3]: 0.006%
LC50, CL [4]: 0.00007%
LC50, HF [5]: 10 µg
LC50, RWW [6]: 0.082 µg
LC50, MW [7]: > 0.01%

CC(C)C(=Nc1ccc(F)c(F)c1)OCc1ccc(F)c(Oc2ccc(Cl)cc2)c1 [Compound 295]
LC50, TBW, C (TBW-C) [8]: 0.0005%
LC50, LH [1]: 0.0001%
LC50, TBW, E (TBW-E) [3]: 0.01%
LC50, CL [4]: 0.00004%
LC50, HF [5]: 7.8 µg
LC50, RWW [6]: > 2.5 µg
LC50, MW [7]: 0.0053%

CC(C)C(=Nc1ccc(Cl)c(Cl)c1)OCc1ccc(F)c(Oc2ccc(Cl)cc2)c1 [Compound 296]
LC50, TBW, C (TBW-C) [8]: 0.00045%
LC50, LH [1]: 0.0003%
LC50, TBW, E (TBW-E) [3]: 0.025%
LC50, CL [4]: 0.00025%
LC50, HF [5]: 38 µg
LC50, RWW [6]: 0.14 µg

CC(C)C(=Nc1ccc(F)c(Br)c1)OCc1ccc(F)c(Oc2ccc(Cl)cc2)c1 [Compound 298]
LC50, TBW, C (TBW-C) [8]: 0.0008%
LC50, LH [1]: 0.0001%
LC50, TBW, E (TBW-E) [3]: 0.015%
LC50, CL [4]: 0.0001%
LC50, HF [5]: 13 µg
LC50, RWW [6]: > 2.5 µg
LC50, MW [7]: 0.008%

CC(C)C(=Nc1ccc(F)c(C(F)(F)F)c1)OCc1ccc(F)c(Oc2ccccc2)c1 [Compound 300]
LC50, TBW, C (TBW-C) [8]: 0.001%
LC50, LH [1]: 0.00002%
LC50, TBW, E (TBW-E) [3]: 0.024%
LC50, CL [4]: 0.0003%
LC50, HF [5]: 14 µg
LC50, RWW [6]: 0.075 µg
LC50, MW [7]: 0.01%

CC(C)C(=Nc1ccc(C(F)(F)F)cc1)OCc1ccc(F)c(Oc2ccc(Cl)cc2)c1 [Compound 324]
LC50, TBW, C (TBW-C) [8]: 0.0004%
LC50, BAW [2]: 0.0024%
LC50, TBW, E (TBW-E) [3]: 0.025%
LC50, CL [4]: 0.00014%
LC50, HF [5]: > 100 µg
LC50, RWW [6]: 0.06 µg

CC(C)C(=Nc1ccc(F)cc1)OCc1ccc(F)c(Oc2ccc(Cl)cc2)c1 [Compound 325]
LC50, TBW, C (TBW-C) [8]: 0.0006%
LC50, BAW [2]: 0.0025%
LC50, TBW, E (TBW-E) [3]: 0.037%
LC50, CL [4]: 0.00012%
LC50, HF [5]: 5 µg
LC50, RWW [6]: > 2.5 µg

CC(C)C(=Nc1ccc(F)c(Cl)c1F)OCc1ccc(F)c(Oc2ccc(F)cc2)c1 [Compound 330]
LC50, TBW, C (TBW-C) [8]: 0.00035%
LC50, LH [1]: < 0.05%
LC50, TBW, E (TBW-E) [3]: 0.037%
LC50, CL [4]: 0.00012%
LC50, HF [5]: 5 µg
LC50, RWW [6]: 0.06 µg
LC50, MW [7]: 0.001%

CC(C)C(=Nc1ccc(OC(F)(F)F)cc1)OCc1ccc(F)c(Oc2ccccc2)c1 [Compound 338]
LC50, TBW, C (TBW-C) [8]: 0.00037%
LC50, TBW, E (TBW-E) [3]: 0.01%
LC50, CL [4]: 0.000065%
LC50, HF [5]: 26 µg
LC50, RWW [6]: 0.044 µg
LC50, MW [7]: 0.0053%

C=C(C)C(=Nc1ccc(C(F)(F)F)cc1)OCc1ccc(F)c(Oc2ccccc2)c1 [Compound 431]
LC50, TBW, E (TBW-E) [3]: 0.025%
LC50, CL [4]: 0.00017%
LC50, HF [5]: 9.8 µg
LC50, RWW [6]: 0.084 µg
LC50, MW [7]: 0.0037%

CC(C)C(=Nc1ccc(C(F)(F)F)c(Br)c1)OCc1ccc(F)c(Oc2ccc(Cl)cc2)c1 [Compound 433]
LC50, TBW, E (TBW-E) [3]: 0.02%
LC50, CL [4]: 0.00017%
LC50, HF [5]: < 100 µg
LC50, RWW [6]: 0.078 µg
LC50, MW [7]: 0.005%

CC(C)C(=Nc1ccc(F)c(Cl)c1F)OCc1ccc(F)c(Oc2ccccc2)c1 [Compound 451]
LC50, TBW, C (TBW-C) [8]: 0.00025%
LC50, LH [1]: 0.0002%
LC50, TBW, E (TBW-E) [3]: > 0.1%
LC50, CL [4]: 0.0001%
LC50, HF [5]: 3.6 µg
LC50, RWW [6]: 0.065 µg
LC50, MW [7]: 0.0051%

CC(C)C(=Nc1ccc(Cl)c(OCC(F)(F)F)c1)OCc1ccc(F)c(Oc2ccc(Cl)cc2)c1 [Compound 452]
LC50, TBW, E (TBW-E) [3]: < 0.1%
LC50, CL [4]: 0.0017%
LC50, HF [5]: > 100 µg
LC50, RWW [6]: 0.1 µg
LC50, MW [7]: > 0.01%

CC(C)C(=Nc1ccc(F)c(Cl)c1)OCc1cccc(Oc2ccc(F)cc2)n1 [Compound 461]
LC50, BAW [2]: 0.0035%
LC50, TBW, E (TBW-E) [3]: 0.01%
LC50, CL [4]: 0.00008%
LC50, HF [5]: 6 µg
LC50, RWW [6]: > 2.5 µg
LC50, MW [7]: 0.0075%
